SMILES strings stand for the structures. Records with an inconclusive call do not appear. Activity calls are given as the source filed them. The rule behind the calls is not given here.

The first data set deals with rat and mouse 2-year carcinogenicity bioassay, tumor evidence. Briefly: Consolidated carcinogenicity assay summary data. The settings on record: Route (rodents): Dosed feed. The source says:
Cancer Evaluation Criteria
The National Toxicology Program describes the results of individual experiments on a chemical agent and notes the strength of the evidence for conclusions regarding each study. […] Other organizations, such as the International Agency for Research on Cancer, assign a strength of evidence for conclusions based on an examination of all available evidence, including animal studies such as those conducted by the NTP, epidemiologic studies, and estimates of exposure. Thus, the actual determination of risk to humans from chemicals found to be carcinogenic in laboratory animals requires a wider analysis that extends beyond the purview of these studies.
Five categories of evidence of carcinogenic activity are used in the Technical Report series to summarize the strength of evidence observed in each experiment: two categories for positive results (clear evidence and some evidence); one category for uncertain findings (equivocal evidence); one category for no observable effects (no evidence); and one category for experiments that cannot be evaluated because of major flaws (inadequate study). These categories of interpretative conclusions were first adopted in June 1983 and then revised on March 1986 for use in the Technical Report series to incorporate more specifically the concept of actual weight of evidence of carcinogenic activity. For each separate experiment (male rats, female rats, male mice, female mice), one of the following five categories is selected to describe the findings. These categories refer to the strength of the experimental evidence and not to potency or mechanism.
For studies showing multiple chemical-related neoplastic effects that if considered individually would be assigned to different levels of evidence categories, the following convention has been adopted to convey completely the study results. In a study with clear evidence of carcinogenic activity at some tissue sites, other responses that alone might be deemed some evidence are indicated as "were also related" to chemical exposure. In studies with clear or some evidence of carcinogenic activity, other responses that alone might be termed equivocal evidence are indicated as "may have been" related to chemical exposure.
When a conclusion statement for a particular experiment is selected, consideration must be given to key factors that would extend the actual boundary of an individual category of evidence. Such consideration should allow for incorporation of scientific experience and current understanding of long-term carcinogenesis studies in laboratory animals, especially for those evaluations that may be on the borderline between two adjacent levels. These considerations should include:
- adequacy of the experimental design and conduct;
- occurrence of common versus uncommon neoplasia;
- progression (or lack thereof) from benign to malignant neoplasia as well as from preneoplastic to neoplastic lesions;
- some benign neoplasms have the capacity to regress but others (of the same morphologic type) progress. At present, it is impossible to identify the difference. Therefore, where progression is known to be a possibility, the most prudent course is to assume that benign neoplasms of those types have the potential to become malignant;
- combining benign and malignant tumor incidences known or thought to represent stages of progression in the same organ or tissue;
- latency in tumor induction;
- multiplicity in site -specific neoplasia;
- supporting information from proliferative lesions (hyperplasia) in the same site of neoplasia or in other experiments (same lesion in another sex or species);
- presence or absence of dose relationships;
- statistical significance of the observed tumor increase;
- concurrent control tumor incidence as well as the historical control rate and variability for a specific neoplasm;
- survival-adjusted analyses and false positive or false negative concerns;
- structure-activity correlations; and
[…]
Consider `ClC1=C(Cl)[C@]2(Cl)[C@H]3[C@H]([C@@H]4C=C[C@H]3C4)[C@@]1(Cl)C2(Cl)Cl`, for which the carcinogen call was “active; equivocal evidence”. Still for that read-out and setting: under `Cc1ccc2c(c1N)C(=O)c1ccccc1C2=O` stands “active; clear evidence”; under `C=C(Cl)CSC(=S)N(CC)CC`, “active; clear evidence”. Regarding `COC(=O)[C@H]1[C@H]2C[C@@H]3c4[nH]c5cc(OC)ccc5c4CCN3C[C@H]2C[C@@H](OC(=O)c2cc(OC)c(OC)c(OC)c2)[C@@H]1OC`, the carcinogen call was “active; clear evidence”. Same read-out and setting: under `CN(C)NC(=O)CCC(=O)O` stands “active; no evidence”; under `O=C1c2ccccc2C(=O)c2ccccc21`, “active; some evidence”; under `Nc1nc(N)nc(N)n1`, “active; clear evidence”. For `CCn1c2ccccc2c2cc(N)ccc21`, the carcinogen call was “active; clear evidence”. Regarding `CNC(=S)N(C)C`, the carcinogen call was “active; no evidence”.

With `CCCC[C@@H](C)[C@@H](OC(=O)C[C@@H](CC(=O)O)C(=O)O)[C@H](C[C@@H](C)C[C@H](O)CCCC[C@@H](O)C[C@H](O)[C@H](C)N)OC(=O)C[C@@H](CC(=O)O)C(=O)O`, the carcinogen call is “active; clear evidence”. As for `ClC1=C(Cl)C2(Cl)C3C(Cl)C=CC3C1(Cl)C2(Cl)Cl` (centres undefined), the carcinogen call is “active; no evidence”. Turning to `Cc1ccc([N+](=O)[O-])cc1N`, the carcinogen call was “active; no evidence”.

Take `O=NN(c1ccccc1)c1ccccc1`: the carcinogen call is “active; clear evidence”. Still for that read-out and setting: in the case of `COc1ccc(N)cc1N` it was “active; clear evidence”; in that of `Nc1ccc(N=Nc2ccccc2)c(N)n1`, “active; clear evidence”; in that of `Nc1ccc(N)c2c1C(=O)c1c(N)ccc(N)c1C2=O`, “active; clear evidence”. Turning to `Nc1ccc(Cl)c(N)c1`, the carcinogen call is “active; clear evidence”.

With `O=C1NC(=O)C(c2ccccc2)(c2ccccc2)N1`, the carcinogen call was “active; equivocal evidence”. For the compound `O=C1C2(Cl)C3(Cl)C4(Cl)C(Cl)(Cl)C5(Cl)C3(Cl)C1(Cl)C5(Cl)C24Cl` (centres undefined), the carcinogen call is “active; clear evidence”. Regarding `Nc1cc(S(=O)(=O)[O-])cc2cc(S(=O)(=O)[O-])c(N=Nc3ccc(-c4ccc(N=Nc5c(S(=O)(=O)[O-])cc6cc(S(=O)(=O)[O-])cc(N)c6c5[O-])c([O-])c4)cc3[O-])c([O-])c12.[Cu+2].[Cu+2].[Na+].[Na+].[Na+].[Na+]`, the carcinogen call was “active; some evidence”. As to `Cc1ncc[nH]1`, the carcinogen call was “active; some evidence”. `N=C1C=CC(=C(c2ccc(N)cc2)c2ccc(N)cc2)C=C1`: the carcinogen call was “active; clear evidence”.

Take `CCOc1ccc(NC(C)=O)cc1N`: the carcinogen call was “active; no evidence”.

With `COc1ccccc1[N+](=O)[O-]`, the carcinogen call is “active; clear evidence”. Regarding `ClC1=C(Cl)C2(Cl)C3C(Cl)C(Cl)CC3C1(Cl)C2(Cl)Cl` (centres undefined), the carcinogen call was “active; no evidence”.

On to `O=C(O)CN(CC(=O)O)CC(=O)O`, for which the carcinogen call is “active; clear evidence”.

Still in this data set, the particulars now being: Route (rodents): Dosed water.
In the case of `Cc1cccnc1`, the carcinogen call was “active; no evidence”. With `O=C(O)C(Cl)(Cl)Br`, the carcinogen call was “active; clear evidence”. As to `CCOC(N)=O`, the carcinogen call is “active”. Regarding `C=CC(N)=O`, the carcinogen call was “active; clear evidence”. For `Cc1cc(-c2ccc(N)c(C)c2)ccc1N`, the carcinogen call is “active; clear evidence”. Regarding `COc1cc(-c2ccc(N)c(OC)c2)ccc1N`, the carcinogen call was “active; clear evidence”. In the case of `NC(=O)C1CO1` (centres undefined), the carcinogen call is “active; clear evidence”. Take `O=C(O)C(Br)Br`: the carcinogen call was “active; some evidence”.

Staying with this data set, now noted: Route (rodents): Gavage.
Turning to `Nc1ccc([N+](=O)[O-])cc1O`, the carcinogen call was “active; some evidence”. For `Clc1cc2oc3c(Cl)c(Cl)c(Cl)cc3c2cc1Cl`, the carcinogen call is “active”. For the compound `ClCCCl`, the carcinogen call was “active; clear evidence”. With `c1ccoc1`, the carcinogen call is “active; clear evidence”. Regarding `CC1(C)COC1=O`, the carcinogen call was “active; clear evidence”. Same read-out and setting: under `C=CC1CC=CCC1` (centres undefined) stands “active; inadequate study”. Still for that read-out and setting: under `C[C@]12CCC(=O)C=C1CC[C@@H]1[C@@H]2CC[C@]2(C)C(=O)CC[C@@H]12` stands “active; equivocal evidence”; under `CC(CCl)OC(C)CCl` (centres undefined), “active; no evidence”; under `Oc1ccc(Cl)cc1Cc1ccccc1`, “active; no evidence”. Same read-out and setting: in the case of `O=Cc1ccccc1` it was “active; no evidence”; in that of `COP(=O)(OC)OC`, “active; clear evidence”; in that of `C=C(C)CCl`, “active; clear evidence”. Take `C=C1C/C(=C/C)C(=O)O[C@@H]2CCN3CC=C(COC(=O)[C@@]1(O)CO)[C@H]23`: the carcinogen call is “active; clear evidence”.

Consider `C=C(C)[C@H]1CC=C(C)CC1`, for which the carcinogen call is “active; clear evidence”. Turning to `CC(C)(c1cc(Br)c(O)c(Br)c1)c1cc(Br)c(O)c(Br)c1`, the carcinogen call is “active; equivocal evidence”. For `Clc1ccc(-c2cc(Cl)c(Cl)cc2Cl)cc1Cl`, the carcinogen call is “active”. On the same count and under the same terms, in the case of `Cc1ccc(N(C)C)cc1` it was “active; clear evidence”. On the same count and under the same terms, under `BrC(Br)Br` stands “active; some evidence”.

In the case of `C[C@]12CC[C@@H]3c4ccc(OC(=O)Cc5ccc(N(CCCl)CCCl)cc5)cc4CC[C@H]3[C@@H]1CC[C@@H]2OC(=O)Cc1ccc(N(CCCl)CCCl)cc1`, the carcinogen call was “active; no evidence”.

In the case of `ClC(Cl)(Cl)C(Cl)(Cl)Cl`, the carcinogen call is “active; clear evidence”. `Clc1ccc(N=Nc2ccc(Cl)c(Cl)c2)cc1Cl`: the carcinogen call was “active; clear evidence”.

With `CCCCC1C(=O)N(c2ccccc2)N(c2ccccc2)C1=O`, the carcinogen call is “active; equivocal evidence”. `ClC(Cl)C(Cl)Cl`: the carcinogen call was “active; equivocal evidence”. On the same count and under the same terms, in the case of `CC=Cc1ccc(O)c(OC)c1` it was “active; equivocal evidence”.

The same data set, now with this note: Route (rodents): Gavage; Second Route: Administration in utero.
`Cc1cn([C@H]2C[C@H](N=[N+]=[N-])[C@@H](CO)O2)c(=O)[nH]c1=O`: the carcinogen call is “active”.

The same data set, now with this note: Route (rodents): Gavage; Second Route: Dosed Water.
As for `ClC(Cl)Br`, the carcinogen call is “active; clear evidence”.

Staying with this data set, now noted: Route (rodents): Gavage; Second Route: Topical.
`S=[Se]`: the carcinogen call was “active; clear evidence”.

Staying with this data set, now noted: Route (rodents): Inhalation.
As to `[O]=[Sb][O][Sb]=[O]`, the carcinogen call is “active; some evidence”. In the case of `CCCl`, the carcinogen call is “active; equivocal evidence”. Consider `CCCBr`, for which the carcinogen call is “active; some evidence”. As for `C#CCO`, the carcinogen call is “active; some evidence”.

Take `C1CO1`: the carcinogen call is “active”.

On to `OCc1ccco1`, for which the carcinogen call was “active; some evidence”. For `C=CC=C`, the carcinogen call is “active”. Turning to `[Co]`, the carcinogen call is “active; clear evidence”.

The same data set, now with this note: Route (rodents): Inhalation; Second Route: Gavage.
Take `BrCCBr`: the carcinogen call is “active; clear evidence”.

Still in this data set, the particulars now being: Route (rodents): Interperitoneal.
In the case of `CNNCc1ccc(C(=O)NC(C)C)cc1`, the carcinogen call was “active; clear evidence”. Regarding `CC(CN1CC(=O)NC(=O)C1)N1CC(=O)NC(=O)C1` (centres undefined), the carcinogen call is “active; no evidence”. As to `COc1cc2c(c3c1c(=O)c1ccccc1n3C)C=CC(C)(C)O2`, the carcinogen call was “active; clear evidence”. Still for that read-out and setting: in the case of `O=P1(NCCCl)OCCCN1CCCl` (centres undefined) it was “active; no evidence”. Consider `CC(COc1ccccc1)N(CCCl)Cc1ccccc1` (centres undefined), for which the carcinogen call was “active; clear evidence”.

For `S=P(N1CC1)(N1CC1)N1CC1`, the carcinogen call is “active; clear evidence”.

Staying with this data set, now noted: Route (rodents): Topical.
For the compound `Oc1cc(Cl)ccc1Oc1ccc(Cl)cc1Cl`, the carcinogen call was “active”.

With `OCCN(CCO)CCO`, the carcinogen call was “active; equivocal evidence”. Still for that read-out and setting: under `C=CC(=O)OCC(CC)(COC(=O)C=C)COC(=O)C=C` stands “active; equivocal evidence”.

The record behind these values is PubChem BioAssay AID2202555 (NIEHS Division of Translational Toxicology (DTT)).
